Earlier results, collected in the CATMoS acute toxicity set (Mansouri et al. 2021).
Values joined by “and” are separate entries in the source; they are usually repeats but may differ in a detail not shown here. Equal entries are not always repeated. Where a SMILES comes first, the peptide text is derived from it. Bridges are numbered along the chain shown (N, C = ends). [ ]: non-standard residue; d: D form. The star is where a group is joined. X1 = CC[C@H](C)CCCCC(=O)*; Dab = NCC[C@H](N)C(=O)O

Assay: rat acute oral toxicity
Conditions: in vivo

| SMILES | LD50 |
| --- | --- |
| CCB(CC)CC | 235 mg/kg |
| COc1ccccc1 | 3700 mg/kg |
| CCN(CCO)c1cccc(C)c1 | 1370 mg/kg |
| CCn1cc(C(=O)O)c(=O)c2cc(F)c(N3CCNC(C)C3)c(F)c21 (stereo not drawn) | 3800 mg/kg and 1560 mg/kg |
| O=C(O)c1ccc(Cl)c([N+](=O)[O-])c1 | 3150 mg/kg |
| O=C1N=C2c3ccccc3N=CN2C1=Cc1ccccc1 | 325 mg/kg |
| CCOP(=O)(OCC)OC(=C(Br)Br)c1ccc(Cl)cc1Cl | 78.1 mg/kg |
| COC(=O)/C=C(\C)OP(=O)(OC)OC | 3 mg/kg |
| ClCC(Cl)(Cl)Cl | 670 mg/kg |
| CCOP(=S)(OCC)Oc1cnn(C)c(=O)c1OC | 2.5 mg/kg |
| CN(C)CCCOC1(Cc2ccccc2)CCCCCC1 | 414 mg/kg |
| CCOC(=O)CN(C)N=O | 4000 mg/kg |
| CCOC(=O)C1CCCCC1 | 3960 mg/kg |
| Clc1cn[nH]c1 | 527 mg/kg |
| CSC(=S)N(C)C | 62 mg/kg |
| CCN(Cc1ccc(Cl)nc1)/C(=C/[N+](=O)[O-])NC | 1580 mg/kg |
| O=C(CCl)OCCOCCO | 770 mg/kg |
| COP(=S)(OC)SC(CBr)N1C(=O)c2ccccc2C1=O (stereo not drawn) | 188 mg/kg |
| COC(CN1CCN(CCC(O)c2ccccc2)CC1)c1ccccc1 (stereo not drawn) | 640 mg/kg |
| CN(C)CN(C)C | 1770 mg/kg |
| CCCCCCCCOC(C[n+]1ccccc1)c1ccc(C2CCCCC2)cc1 (stereo not drawn) | 250 mg/kg |
| Fc1c(Br)c(Cl)c2nc(C(F)(F)F)[nH]c2c1Br | 6.28 mg/kg |
| CCCCCOc1cccc(NC(=O)O[C@@H]2CCCC[C@H]2N2CCCC2)c1 | 1030 mg/kg |

| SMILES | LD50 |
| --- | --- |
| COCC=O | 2330 mg/kg |
| N#Cc1nn(-c2c(Cl)cc(C(F)(F)F)cc2Cl)c(N)c1S(=O)(=O)C(F)(F)F | 184 mg/kg |
| CC(=O)NNc1ccc(N)cc1 | 10 mg/kg |
| CCC(C)c1ccccc1OC(=O)NC (stereo not drawn) | 350 mg/kg |
| O=C(CCl)CC(=O)Nc1ccccc1 | 1820 mg/kg |
| O=c1oc(=O)c2cc3c(=O)oc(=O)c3cc12 | 2250 mg/kg |
| COc1ccccc1S | 1740 mg/kg |
| O=C(O)CCc1nc(-c2ccccc2)c(-c2ccccc2)o1 | 4470 mg/kg |
| BrCC(Br)C1CCC(Br)C(Br)C1 (stereo not drawn) | 3220 mg/kg |
| CC[C@H](C)CCCCC(=O)N[C@@H](CCN)C(=O)N[C@H](C(=O)N[C@@H](CCN)C(=O)N[C@H]1CCNC(=O)[C@@H]([C@H](C)O)NC(=O)[C@H](CCN)NC(=O)[C@H](CCN)NC(=O)[C@H](CC(C)C)NC(=O)[C@@H](CC(C)C)NC(=O)[C@H](CCN)NC1=O)[C@@H](C)O (X1-[Dab]T[Dab][Dab][Dab][dL]L[Dab][Dab][dT]; lactam 4-C) | 121 mg/kg |
| Nc1cccc2c3c([nH]c12)CCCC3 | 1380 mg/kg |
| CC(C)c1ccc(C(C)(C)O)cc1 | 11300 mg/kg |
| CC(C)(C)c1ccc(CCC=O)cc1 | 2700 mg/kg |
| NC(=O)c1cc([N+](=O)[O-])cc([N+](=O)[O-])c1 | 1250 mg/kg |
| CC=CC(C)C1(CC)C(=O)NC(=O)NC1=O (stereo not drawn) | 20 mg/kg |
| C[N+]1(CCC(C2=CCCCC2)c2ccccc2)CCCCC1 (stereo not drawn) | 1700 mg/kg |
| COP(=S)(OC)SCSc1ccc(Cl)cc1 | 48 mg/kg |
| NC(=S)Nc1ccccc1 | 3 mg/kg |
| C[Si](Cl)(Cl)CCC(F)(F)F | 1000 mg/kg |
| O=C(O)Cc1cc(I)c(Oc2cc(I)c(O)c(I)c2)c(I)c1 | 0.825 mg/kg |
| O=COCCOC=O | 1510 mg/kg |
| CNC(=O)ON=C1C2CCC(C2)C1(C)[N+](=O)[O-] (stereo not drawn) | 24 mg/kg |
| Cc1ccc2c(c1)CC(=O)c1cc(C(C)C(=O)OCCOCCO)ccc1O2 (stereo not drawn) | 219 mg/kg |

| SMILES | LD50 |
| --- | --- |
| CC(=O)c1cccc(Oc2ccccc2)c1 | 4160 mg/kg |
| CN(C)CCC(c1ccccc1)c1ccccn1 (stereo not drawn) | 520 mg/kg |
| CC(C)(N)CO | 2900 mg/kg |
| ClCCC(Cl)(Cl)Cl | 490 mg/kg |
| COC(C)CC(OC)OC (stereo not drawn) | 1480 mg/kg |
| Cc1c(Cl)c(Cl)c(Cl)c2[nH]c(C(F)(F)F)nc12 | 6.49 mg/kg |
| CC[C@@H](CO)NC(=O)[C@@H]1C=C2c3cccc4c3c(cn4C)C[C@H]2N(C)C1 | 2100 mg/kg |
| FC(F)(F)c1nc2c(Cl)cc(Br)cc2[nH]1 | 6.4 mg/kg |
| CC[N+](CC)(CC(=O)Nc1c(C)cccc1C)Cc1ccccc1 | 584 mg/kg |
| CON=C(C(=O)N[C@@H]1C(=O)N2C(C(=O)O)=C(COC(N)=O)CS[C@H]12)c1ccco1 | 10000 mg/kg |
| COc1ccccc1N1CCN(CC=Cc2ccc3c(c2)CCC(=O)N3)CC1 | 500 mg/kg |
| CC(=O)OC1CC2CCC3C(CCC4(C)C3CC(OC(C)=O)C4[N+]3(C)CCCCC3)C2(C)CC1[N+]1(C)CCCCC1 (stereo not drawn) | 202 mg/kg |
| CN(C)C=C1C(=O)N(c2ccccc2)N=C1c1ccccc1 | 890 mg/kg |
| COc1ccc2c(c1)c(CC(=O)O)c(C)n2C(=O)/C=C/c1ccccc1 | 900 mg/kg |
| Nc1cc(Cl)ccc1Oc1ccc(Cl)cc1Cl | 2290 mg/kg |
| COc1ccc(N)cc1OC | 681 mg/kg |
| O=NN1CCN(N=O)CC1 | 160 mg/kg |
| CC1C2Cc3ccc(O)cc3C1(C)CCN2CCc1ccccc1 (stereo not drawn) | 90 mg/kg |
| CCCCC(CC)COC(=O)C(CC)CCCC (stereo not drawn) | 27000 mg/kg |
| CCOC(N)=C1Sc2ccccc2C1=O | 4000 mg/kg |
| CC(C)(OOC(C)(C)c1ccccc1)c1ccccc1 | 4100 mg/kg |
| COP(=O)(OC)OC(=CCl)c1cc(Cl)ccc1Cl | 3790 mg/kg |
